Patent US10406175B2, “Polymer-flavonoid conjugate and uses thereof” (Agency for Science, Technology and Research, priority 2014, dated 2019)

Tests used:
Assay type in all cases: cell-based, human
[1] = system: IL-6; experiment: IL-1ß-induced IL-6 expression in OA chondrocytes (RT-PCR and ELISA); conditions: IL-1ß 5 ng/ml, 24 h; EGCG 10 μM; HA or conjugate at two concentrations (FIGS. 2, 5)
Experimental: (§1) Cryopreserved human osteoarthritis chondrocytes (passage 1) were obtained from Cell Applications, INC. (USA). The cells were thawed and cultured in T75 cell culture flasks using complete growth medium (DMEM/F12 medium supplemented with 10% FBS and 1% penicillin/streptomycin). The cells were maintained at 37° C. and 5% CO2 atmosphere. Growth medium was replaced every 2-3 days and the cells were subcultured at 80% confluency. Only cells at passage 2 and 3 were used in this study. After expansion, the cells were re-differentiated in alginate beads according to previously established protocol with some modifications. Briefly, cells were trypsinized, pelleted and resuspended in 1.2% (w/v) sodium alginate in 0.15 M NaCl. The cell suspension was dispensed through a 210 needle dropwise into gelation solution (102 mM CaCl2, 10 mM HEPES and 0.0005% Tween 20, pH 7.4). Approximately 15 alginate beads were dispensed in 5 ml of gelation solution in a 6-wellplate. After gelation for 10 min, the gelation solution was removed and the alginate beads were washed twice with 5 ml of 0.15 M NaCl. Complete growth medium (5 ml) was then added and the cells were re-differentiated for 8 days in the alginate beads. Medium was changed every 2-3 days. After 8 days, the alginate beads were solubilized in dissolution solution (55 mM EDTA and 10 mM HEPES, pH 7.4).

[2] = system: TNF-α; experiment: IL-1ß-induced TNF-α expression in OA chondrocytes (RT-PCR and ELISA); conditions: IL-1ß 5 ng/ml, 24 h; EGCG 10 μM; HA or conjugate at two concentrations (FIGS. 2, 5)
Experimental: as §1

[3] = system: MMP-1; experiment: IL-1ß-induced MMP-1 expression in OA chondrocytes (RT-PCR and ELISA); conditions: IL-1ß 5 ng/ml, 24 h; EGCG 10 μM; HA or conjugate at two concentrations (FIGS. 3, 6)
Experimental: as §1

[4] = system: MMP-3; experiment: IL-1ß-induced MMP-3 expression in OA chondrocytes (RT-PCR and ELISA); conditions: IL-1ß 5 ng/ml, 24 h; EGCG 10 μM; HA or conjugate at two concentrations (FIGS. 3, 6)
Experimental: as §1

[5] = system: MMP-13; experiment: IL-1ß-induced MMP-13 expression in OA chondrocytes (RT-PCR and ELISA); conditions: IL-1ß 5 ng/ml, 24 h; EGCG 10 μM; HA or conjugate at two concentrations (FIGS. 3, 6)
Experimental: as §1

O=C(O[C@@H]1Cc2c(O)cc(O)cc2O[C@@H]1c1cc(O)c(O)c(O)c1)c1cc(O)c(O)c(O)c1 [EGCG, epigallocatechin gallate]
effectively inhibited: downregulation of IL-1ß-induced IL-6 gene and protein expression [1] | downregulation of IL-1ß-induced TNF-α gene and protein expression [2] | downregulation of IL-1ß-induced MMP-1 gene and protein expression [3] | downregulation of IL-1ß-induced MMP-3 gene and protein expression [4] | downregulation of IL-1ß-induced MMP-13 gene and protein expression [5]
